Measured values reported in ChEMBL document CHEMBL6177928, “Probing structural requirements for thiazole-based mimetics of sunitinib as potent VEGFR-2 inhibitors” (RSC Med Chem, 2025).
Calls of active or inactive are those of the source. The calls are words filed in the database; no cut-off is given here.

Assays:
[1] = Cytotoxicity against human WI-38 cells incubated for 48 hrs by MTT assay; type: toxicity, cell-based
[2] = Cytotoxicity against human WISH cells incubated for 48 hrs by MTT assay; type: toxicity, cell-based
WI-38 = assay: Cytotoxicity against human WI-38 cells up to 50 uM incubated for 48 hrs by MTT assay; type: toxicity, cell-based; conditions: wi-38, 48 h
WISH = assay: Cytotoxicity against human WISH cells at up to 50 uM incubated for 48 hrs by MTT assay; type: toxicity, cell-based
HCT-116 [3] = assay: Induction of cell cycle arrest in human HCT-116 cells assessed as accumulation of cells at G1 phase measured after 24 hrs by PI/Rnase staining based flow cytometry analysis (reference value: 47.28%); type: functional
HCT-116 [4] = assay: Induction of cell cycle arrest in human HCT-116 cells assessed as accumulation of cells at G2/M phase measured after 24 hrs by PI/Rnase staining based flow cytometry analysis (reference value: 17.66 %); type: functional
HCT-116 [5] = assay: Induction of cell cycle arrest in human HCT-116 cells assessed as accumulation of cells at S phase measured after 24 hrs by PI/Rnase staining based flow cytometry analysis (reference value: 17.66 %); type: functional
MCF7 [6] = assay: Induction of cell cycle arrest in human MCF7 cells assessed as accumulation of cells at G1 phase measured after 24 hrs by PI/Rnase staining based flow cytometry analysis (reference value: 56.37%); type: functional
MCF7 [7] = assay: Induction of cell cycle arrest in human MCF7 cells assessed as accumulation of cells at G2/M phase measured after 24 hrs by PI/Rnase staining based flow cytometry analysis (reference value: 14.86 %); type: functional
MCF7 [8] = assay: Induction of cell cycle arrest in human MCF7 cells assessed as accumulation of cells at S phase measured after 24 hrs by PI/Rnase staining based flow cytometry analysis (reference value: 28.77 %); type: functional
HeLa [9] = assay: Induction of cell cycle arrest in human HeLa cells assessed as accumulation of cells at G1 phase measured after 24 hrs by PI/Rnase staining based flow cytometry analysis (reference value: 52.69 %); type: functional
HeLa [10] = assay: Induction of cell cycle arrest in human HeLa cells assessed as accumulation of cells at G2/M phase measured after 24 hrs by PI/Rnase staining based flow cytometry analysis (reference value: 16.27 %); type: functional
HeLa [11] = assay: Induction of cell cycle arrest in human HeLa cells assessed as accumulation of cells at S phase measured after 24 hrs by PI/Rnase staining based flow cytometry analysis (reference value: 31.04 %); type: functional
HCT-116 [12] = assay: Induction of cell cycle arrest in human HCT-116 cells assessed as accumulation of cell debris measured after 24 hrs by PI/Rnase staining based flow cytometry analysis (reference value: 1.33%); type: functional
MCF7 [13] = assay: Induction of cell cycle arrest in human MCF7 cells assessed as accumulation of cell debris measured after 24 hrs by PI/Rnase staining based flow cytometry analysis (reference value: 1.61%); type: functional
HeLa [14] = assay: Induction of cell cycle arrest in human HeLa cells assessed as accumulation of cell debris measured after 24 hrs by PI/Rnase staining based flow cytometry analysis (reference value: 1.33%); type: functional
HCT-116 [15] = assay: Induction of apoptosis in human HCT-116 cells assessed as early apoptotic cells incubated for 24 hrs by Annexin-V-FITC/PI staining based flow cytometry analysis (reference value: 0.44%); type: functional
HCT-116 [16] = assay: Induction of apoptosis in human HCT-116 cells assessed as late apoptotic cells incubated for 24 hrs by Annexin-V-FITC/PI staining based flow cytometry analysis (reference value: 0.16%); type: functional
HCT-116 [17] = assay: Induction of apoptosis in human HCT-116 cells assessed as necrotic cells incubated for 24 hrs by Annexin-V-FITC/PI staining based flow cytometry analysis (reference value: 1.34%); type: functional
MCF7 [18] = assay: Induction of apoptosis in human MCF7 cells assessed as early apoptotic cells incubated for 24 hrs by Annexin-V-FITC/PI staining based flow cytometry analysis (reference value: 0.51%); type: functional
MCF7 [19] = assay: Induction of apoptosis in human MCF7 cells assessed as late apoptotic cells incubated for 24 hrs by Annexin-V-FITC/PI staining based flow cytometry analysis (reference value: 0.21%); type: functional
MCF7 [20] = assay: Induction of apoptosis in human MCF7 cells assessed as necrotic cells incubated for 24 hrs by Annexin-V-FITC/PI staining based flow cytometry analysis (reference value: 1.57%); type: functional
HeLa [21] = assay: Induction of apoptosis in human HeLa cells assessed as early apoptotic cells incubated for 24 hrs by Annexin-V-FITC/PI staining based flow cytometry analysis (reference value: 0.41 %); type: functional
HeLa [22] = assay: Induction of apoptosis in human HeLa cells assessed as late apoptotic cells incubated for 24 hrs by Annexin-V-FITC/PI staining based flow cytometry analysis (reference value: 0.13 %); type: functional
HeLa [23] = assay: Induction of apoptosis in human HeLa cells assessed as necrotic cells incubated for 24 hrs by Annexin-V-FITC/PI staining based flow cytometry analysis (reference value: 1.12 %); type: functional
Ehrlich [24] = assay: Antitumor activity against mouse EAC cells xenografted in Swiss albino mouse assessed as reduction in tumor volume at 10 mg/kg, ip measured after 5 to 20 days; type: functional, organism-based; conditions: time 5-20 day
Ehrlich [25] = assay: Antitumor activity against mouse EAC cells xenografted in Swiss albino mouse assessed as tumor growth inhibition at 10 mg/kg, ip measured after 10 to 20 days; type: functional; conditions: read-out: TGI, time 10-20 day
HepG2 = assay: cells; conditions: Homo sapiens, HepG2, 48 h
Description: Antitumor activity against human HepG2 cells assessed as inhibition of cell viability incubated for 48 hrs by MTT assay

HCT-116 [26] = assay: cells; conditions: Homo sapiens, HCT-116, 48 h
Description: Antitumor activity against human HCT-116 cells assessed as inhibition of cell viability incubated for 48 hrs by MTT assay

MCF7 [27] = assay: cells; conditions: Homo sapiens, MCF7, 48 h
Description: Antitumor activity against human MCF7 cells assessed as inhibition of cell viability incubated for 48 hrs by MTT assay

HEp-2 = assay: cells; conditions: Homo sapiens, HEp-2, 48 h
Description: Antitumor activity against human HEp-2 cells assessed as inhibition of cell viability incubated for 48 hrs by MTT assay

HeLa [28] = assay: cells; conditions: Homo sapiens, 48 h
Description: Antitumor activity against human HeLa cells assessed as inhibition of cell viability incubated for 48 hrs by MTT assay

## N#Cc1sc(Nc2ccccc2)nc1NC(=O)CNNCC(=O)c1ccc(Cl)cc1
[1]
  IC50 at 48 h: 60.8 µM
[2]
  IC50 at 48 h: 77.2 µM
WI-38
  Activity: Non-toxic
WISH
  Activity: Non-toxic
HCT-116 [3]
  Activity: 51.96%
HCT-116 [4]
  Activity: 16.05%
HCT-116 [5]
  Activity: 31.99%
MCF7 [6]
  Activity: 63.61%
MCF7 [7]
  Activity: 12.55%
MCF7 [8]
  Activity: 23.84%
HeLa [9]
  Activity: 43.64%
HeLa [10]
  Activity: 15.23%
HeLa [11]
  Activity: 41.19%
HCT-116 [12]
  Activity: 2.25%
MCF7 [13]
  Activity: 1.58%
HeLa [14]
  Activity: 2.17%
HCT-116 [15]
  Activity: 21.42%
HCT-116 [16]
  Activity: 8.29%
HCT-116 [17]
  Activity: 2.2%
MCF7 [18]
  Activity: 6.22%
MCF7 [19]
  Activity: 19.17%
MCF7 [20]
  Activity: 4.47%
HeLa [21]
  Activity: 19.17%
HeLa [22]
  Activity: 12.35%
HeLa [23]
  Activity: 2.66%
Ehrlich [24]
  Activity: Active
Ehrlich [25]
  inhibition in vivo at 10 mg/kg: > 50%
HepG2
  IC50: 15.2 µM
HCT-116 [26]
  IC50: 11.6 µM
MCF7 [27]
  IC50: 13.3 µM
HEp-2
  IC50: 26.9 µM
HeLa [28]
  IC50: 10.6 µM
